Test results as given in article PMC11206852, “Solubility, pH-Solubility Profile, pH-Rate Profile, and Kinetic Stability of the Tyrosine Kinase Inhibitor, Alectinib” (Pharmaceuticals, 2024).
Entries after “also recorded” stand apart in the source; their conditions may differ.

How the values were obtained:
[1] = solubility study in water and different solvents; format: physicochemical; conditions: thermodynamic from solid
Description: Then, they were covered with aluminum foil to exclude the light effect. Then, all tubes were put in a water bath at 25 ± 1 °C and 50 rpm for 48 h to reach equilibrium. After that, the samples were filtered using a 0.22 µm filter, and 1 mL was injected into the HPLC. Any sample with a high reading was diluted with the mobile phase.

pH-solubility profile = format: physicochemical; conditions: for solubility at 48 h: aqueous buffer
Description: All buffers were at a concentration of 0.05 M. The experiment was performed in the same way as the previous experiment on solubility.

[2] = photostability in solution and solid state; format: physicochemical
[3] = heat and accelerated stability study of solution in methanol; format: physicochemical
Description: Then, the rate constant of degradation at each temperature was calculated, and the shelf life of the solution at each temperature was calculated.

[4] = short-term (24 h) stability of solution in methanol; format: physicochemical; conditions: room temperature
[5] = pH stability and pH-rate profile; format: physicochemical; conditions: methanolic citrate buffer, pH 3.5, 5 and 6.2
Description: A citrate buffer at three pH values was prepared as described above (pH of 3.5, 5, and 6.2). […] The aim was to calculate the rate constant at each pH level and plot it against the pH values.

[6] = sink conditions for dissolution test at pH 6.8 and 4.5; format: physicochemical; conditions: 37 °C, 24 h, dose 150 mg, media M1-M16
Description: The sink conditions are necessary to perform a successful dissolution test for oral solid dosage forms. […] Phosphate buffer (pH of 6.8) and acetate buffer (pH of 4.5) were prepared. Then, SLS, Tween 80, and ethanol were tried in different concentrations to achieve the target.

NCI-H2228 cell line = system: NCI-H2228 cell line; design: method as in PMID 25205428; conditions: oral administration, cited from earlier work
[7] = design: method as in PMID 21575866; conditions: compared with free plasma concentration; cited from earlier work
[8] = design: method as in PMID 23639470; conditions: 20 to 300 mg every 12 h; cited from earlier work
[9] = design: method as in PMID 25153538; conditions: non-fasting conditions; cited from earlier work
[10] = cited from earlier work
[11] = cited from earlier work; remark: listed apart in the source
[12] = known description, no reference given; cited from earlier work
[13] = cited from earlier work; remark: listed apart in the source

CCc1cc2c(cc1N1CCC(N3CCOCC3)CC1)C(C)(C)c1[nH]c3cc(C#N)ccc3c1C2=O.Cl [ALBHCL, 9-ethyl-6,6-dimethyl-8-[4-(morpholin-4-yl)piperidin-1-yl]-11-oxo-6,11-dihydro-5H-benzo[b]carbazole-3-carbonitrile-hydrochloride]
solubility at 48 h ([1]; PEG 400, organic solvent or mixture, PEG400, 25 °C, read-out: solubility): 260 ± 6 µg/mL
solubility at 48 h ([1]; organic solvent or mixture, DMSO, 25 °C, read-out: solubility): 4500 ± 6.1 µg/mL
solubility at 48 h ([1]; organic solvent or mixture, THF, 25 °C, read-out: solubility): 280.9 ± 2.4 µg/mL
solubility at 48 h ([1]; organic solvent or mixture, acetonitrile, 25 °C, read-out: solubility): 150.2 ± 1.1 µg/mL
solubility at 48 h ([1]; organic solvent or mixture, chloroform, 25 °C, read-out: solubility): 620.3 ± 0.58 µg/mL
solubility at 48 h ([1]; organic solvent or mixture, ethanol, 25 °C, read-out: solubility): 210 ± 4.5 µg/mL
solubility at 48 h ([1]; organic solvent or mixture, methanol, 25 °C, read-out: solubility): 1991 ± 7.2 µg/mL
solubility at 48 h ([1]; propylene glycol, organic solvent or mixture, PG, 25 °C, read-out: solubility): 211 ± 5.8 µg/mL
solubility at 48 h ([1]; water, 25 °C, read-out: absolute solubility): 10.3 ± 1.2 µg/mL
solubility at 48 h (pH-solubility profile; pH 3.5, citrate buffer 0.05 M): 50 µg/mL
solubility at 48 h (pH-solubility profile; pH 5, citrate buffer 0.05 M): 25.8 µg/mL
stability at pH 1.2 (pH-solubility profile; pH 1.2, chloride buffer, chromatogram after 24 h): showed degradation; also recorded: instability
pH of maximum solubility (pH-solubility profile; pH 1.2 to 10): 3.5
remained intact after exposure to light ([2]; solid powder, 36 h light): 82%
recovery from analysis of the powder ([2]; solid powder, light, up to 36 h): 99%
half-life at 50 µg/mL ([2]; solution in methanol exposed to light, solution, light, room temperature, read-out: half-life of photodegradation (converted)): 0.346 days
intact ALBHCL remaining after exposure to light ([2]; solution in methanol, 36 h light): 32%
rate constant of photodegradation (first-order) K ([2]; solution, light): 0.0829 h⁻¹
rate constant K1 (at 25 °C) ([3]; extrapolated to 25 °C): 0.00075 h⁻¹
half-life ([3]; solution in methanol, 25 °C): 38.5 days
shelf-life of solution ([3]; solution in methanol, 25 °C, 0.105/K25): 140 h
rate constant of degradation (first-order) K50 °C ([3]; solution in methanol, 50 °C): 0.01013 h⁻¹
rate constant of degradation (first-order) K55 °C ([3]; solution in methanol, 55 °C): 0.01382 h⁻¹
rate constant of degradation (first-order) K60 °C ([3]; solution in methanol, 60 °C): 0.02579 h⁻¹
duration of stability of solutions [4]: 24 h
effect of pH on stability [5]: increasing the pH would increase stability
dissolution media that fulfilled sink conditions [6]: phosphate buffer 6.8 + 2% SLS (M3), phosphate buffer 6.8 + 5% Tween 80 (M6), acetate buffer 4.5 + 2% SLS (M11), and acetate buffer 4.5 + 5% Tween 80 (M14)
tumor regression (NCI-H2228 cell line; NCI-H2228 cell line): notable regression
ED50 of tumor suppression (NCI-H2228 cell line; tumor-bearing mice): 0.46 mg/kg
measured concentrations in the blood-cerebrospinal fluid (CSF) barrier [7]: approximately equal to the free concentration of ALBHCl in plasma
time of peak plasma levels after administration [8]: 2.00 to 4.61 h
increase of AUC [9]: 20%
increase of Cmax [9]: 20%
adverse drug reaction: drug-induced liver injury [10]: 1.3%
adverse drug reaction: interstitial lung disease [10]: 1.3%
adverse drug reaction: photosensitivity reaction [10]: 5.3%
adverse drug reaction: stomatitis [10]: 3.3%
adverse drug reaction: weight gain [10]: 9.9%
nephrotoxicity [10]: reported in rare cases
bradycardia ([10]; increased exposure, ref Pruis et al. 17): linked to bradycardia
lipophilicity [11]: highly lipophilic
logP ([11]; no method or reference given): 5.5
solubility in water, descriptive [12]: practically insoluble
route of most elimination [13]: feces
